Test results from patent publication US20240083943A1, “VEGF-REGULATING PEPTIDES” (IDP DISCOVERY PHARMA, S.L., priority 2020, published 2024).
Positions of bridges follow the written chain, without caps; N, C: chain ends. Non-standard residues stand in square brackets, D forms with d. No end group written: not given here. formula (I), R19:CH3 = not defined here; formula (I) = not defined here

Columns and labels:
[1] = test system: VEGF protein in ARPE-19 human retinal pigment epithelia cells; assay: VEGF ELISA of culture supernatant, CoCl2-induced hypoxia vs normoxia, ARPE-19 cells; assay type: cell-based; conditions: for Relative VEGF (Hipoxia/Normoxia) / Relative VEGF (Hypoxia/Normoxia): peptide 20 μM; for Relative VEGF (Hipoxia/Normoxia): Table 3, untreated ratio 1.87; for Effect on VEGF expression under hypoxia conditions (in words): compared with untreated cells; for Relative VEGF (Hypoxia/Normoxia): 24 hr, 300 μM CoCl2, Table 2, untreated ratio 2.02
Procedure: (§1) MDA-MB-231 human breast cancer cell lines, HaCat immortalized human keratinocyte cell line and ARPE-19 human retinal pigment epithelia (RPE) cell line were purchased from American Type Culture Collection (ATCC, Manassas, VA, USA). Human cells were routinely authenticated using genotype profiling according to the ATCC guidelines. ARPE-19 cells were maintained in DMEM/F12 medium with HEPES supplemented with 10% fetal calf serum and antibiotics.
(§2) A fresh stock solution 0.4 M CoCl2 was prepared in water and added to the medium to obtain the concentration of 50 μM for MDA-MB-231, 200 μM for HaCaT and 300 μM for ARPE-19 cells. Cells were incubated with respective CoCl2 concentration for 24 hr to mimic hypoxic conditions.
The VEGF-content of the supernatant of culture cells was measured by a VEGF-ELISA (Abcam; ab100662; Cambridge, UK) following the manufacturer's instructions. The range of detection of the ELISA was between 8.23 pg/ml and 6,000 pg/ml. […] The same procedure was used in the presence of the peptides of the invention.
(§3) RT-PCR experiments were repeated at least 2 times. For VEGF assays, the mean±S.D of 3 determinations carried out in triplicate were calculated. Statistical significance was determined using Mann-Whitney tests for comparisons of means in a SPPS statistical software for Microsoft Windows, release 6.0 (Professional Statistic, Chicago, IL, USA). Individual comparisons were made using Student's two-tailed, unpaired t-tests. Criterion for significance was P<0.05 for all comparisons.
The objective of this study was to determine the regulation of VEGF by the peptides in hypoxia induced conditions in ARPE-19 cell lines. The VEGF protein (using ELISA kit) was calculated in untreated cells in hypoxia vs. normoxia and a threshold of activity was set. Then, cells were treated with a solution of the corresponding peptide of the invention at 20 μM dissolved in cell culture medium alone (normoxia condition) or in the presence of CoCl2 (hypoxia conditions) and the ratio of VEGF protein amount was calculated. The peptides showing a VEGFhyp/VEGFnorm ratio higher than the ratio in untreated cells were considered as inducers of VEGF protein, while peptides providing a VEGFhyp/VEGFnorm ratio lower than the ratio in untreated cells were considered as reducers of VEGF protein, as reported in table 2.

[2] = test system: VEGF protein in HaCat immortalized human keratinocyte cells; assay: VEGF ELISA of culture supernatant, CoCl2-induced hypoxia vs normoxia, HaCat cells; assay type: cell-based; conditions: peptide 10 μM, untreated ratio 1.15
Source text: as §1
(§4) MDA-MB-231 and HaCaT were maintained in DMEM medium with glucose 4.5gr/L, glutamine and pyruvate 2 mM and supplemented with 10% fetal calf serum and antibiotics.
as §2
(§5) The VEGF-content of the supernatant of culture cells was measured by a VEGF-ELISA (Abcam; ab100662; Cambridge, UK) following the manufacturer's instructions. […]
as §3, with “Individual comparisons were made using Student's two-tailed, unpaired t-tests. Criterion for significance was P<0.05 for all comparisons.” left out

[3] = test system: VEGF protein in MDA-MB-231 human breast cancer cells; assay: VEGF ELISA of culture supernatant, CoCl2-induced hypoxia vs normoxia, MDA-MB-231 cells; assay type: cell-based; conditions: peptide 10 μM, untreated ratio 1.72
Source text: as §1, §4, §2, §5
as §3, with “Individual comparisons were made using Student's two-tailed, unpaired t-tests. Criterion for significance was P<0.05 for all comparisons.” left out

[4] = test system: VEGF mRNA in ARPE-19 cells; assay: Real time quantitative RT-PCR of VEGF mRNA in ARPE-19 cells; assay type: cell-based, human; conditions: for VEGF mRNA level compared to untreated cells (in words): ARPE-19, 10 μM; for Relative Copy to Control / VEGF mRNA Copy/Copy million of Actine: ARPE-19, peptide 10 μM, 24 hr; for Relative Copy to Control: control = untreated normoxia (1)
Procedure: as §2
Extraction of RNA from indicated cells was performed using the NZY total RNA isolation kit (Nzytech, Lisboa, Portugal) and cDNA prepared using the NZY First-Strand cDNA Synthesis Kit (Nzytech). Primers were designed using Primer Blast software (NCBI) and obtained from Thermo-Fisher. mRNA expression levels were evaluated by qRT-PCR (QuantStudio 5 Real-Time PCR System, Applied Biosystems, Foster City, CA, USA) using SYBR green master mix (Applied Biosystems) and normalized to […]. The following primers were used in this study: β-Actin (forward: 5″-AGAAAATCTGGCACCACACC-3″ (SEQ ID NO: 32); reverse: 5″-GGGGTGTTGAAGGTCTCAAA-3″ (SEQ ID NO: 33)); VGFA (forward: 5″-TACTGCCATCCAATCGAGAC-3″ (SEQ ID NO: 34); reverse: 5″-GCA TGG TGA TGT TGG ACT-3″ (SEQ ID NO: 35)).
as §3
The VEGF expression regulation was also determined by […] in ARPE-19 cells treated with the peptide SEQ ID NO: 17 at 10 μM for 24 hr in normoxia and hypoxia conditions.

[5] = test system: CD31 staining (blood vessels) in MDA-MB-231 tumours; assay: Angiogenesis reduction in vivo: CD31 immunohistochemistry of MDA-MB-231 breast tumour xenografts; conditions: MDA-MB-231 xenograft in athymic mice, s.c. 2x week, vs vehicle
Procedure: MDA-MB-231 cells were inoculated (2.5×10^6 cells/animal) in 100 μl of DMEM into the mammary fat pad of athymic mice. When tumours reached a volume of 100 mm3, animals were divided in groups and treated 2× week by s.c. administration with vehicle (2% Tween-20 in 0.9% NaCl sterile, control group) and 2× week by s.c. administration with SEQ ID NO:17 (treated group). At sacrifice, tumours were collected, weighed and formalin-fixed (24 h). Formalin-fixed tumours were processed for paraffin-embedded tissue blocks, which were sent for analysis to the Dept. Bioquimica y Biologic Molecular A, Facultad de Veterinaria, Universidad de Murcia.
Hematoxylin, eosin, diaminobenzidine tetrahydrochloride and hydrogen peroxide were obtained from Merck (Madrid, Spain). The antibody mouse monoclonal anti-CD31 was obtained from Novus.
Tumours washed in PBS, fixed in 10% formalin and embedded in paraffin.
Haematoxylin and eosin (H&E) staining was performed on serial sections of paraffin embedded tissues. For immunohistochemistry, paraffin sections were deparaffinized and subjected to antigen retrieval in sodium citrate buffer (pH 6.0). Tissue endogenous peroxidase was inactivated with 5% hydrogen peroxide. Slides were blocked and incubated with primary antibodies overnight at 4 C. […] The stained slides were scanned using a SCN400F Leica scanner and images were analysed using ImageJ software.

KASVMRLTISYLRV [SEQ ID NO: 37, 14 amino acid lineal peptide]
Relative VEGF (Hipoxia/Normoxia) [1]: 2.02

KASVMRLTISYLRVR [SEQ ID NO: 36, 15 amino acid lineal peptide disclosed in WO2006038208(A2), reference compound]
Effect on VEGF expression under hypoxia conditions (in words) [1]: no effect in the modulation of VEGF expression
Relative VEGF (Hipoxia/Normoxia) [1]: 1.89

LDKASVMRLTISYLRVRK [SEQ ID NO: 13, lineal peptide, 18 amino acids]
Effect on VEGF expression under hypoxia conditions (in words) [1]: increase VEGF expression under hypoxia conditions
Relative VEGF (Hypoxia/Normoxia) [1]: 2.59

SEQ ID NO: 14: cross-linked (stapled) peptide derived from SEQ ID NO: 1 (KA[formula (I), R19:CH3]VMRLTI[formula (I), R19:CH3]YLRVR-NH2; staple 3-10; reading uncertain; also: staple: ‑(CH2)6‑CH:CH‑(CH2)3‑)
Relative VEGF (Hypoxia/Normoxia) [1]: 1.41

SEQ ID NO: 16: cross-linked (stapled) peptide derived from SEQ ID NO: 1 (KASVM[formula (I), R19:CH3]LTISYL[formula (I), R19:CH3]VR-NH2; staple 6-13; reading uncertain; also: staple: ‑(CH2)6‑CH:CH‑(CH2)3‑)
Relative VEGF (Hypoxia/Normoxia) [1]: 1.01
Relative VEGF (Hypoxia/Normoxia) [2]: 0.88
Relative VEGF (Hypoxia/Normoxia) [3]: 1.30

SEQ ID NO: 17: cross-linked (stapled) peptide; differs from SEQ ID NO: 16 only in the C-terminal end (KASVM[formula (I), R19:CH3]LTISYL[formula (I), R19:CH3]VR-OH; staple 6-13; reading uncertain; also: staple: ‑(CH2)6‑CH:CH‑(CH2)3‑)
Relative VEGF (Hypoxia/Normoxia) [1]: 1.02
VEGF mRNA level compared to untreated cells (in words) ([4]; hypoxia): reduced significantly the mRNA level
VEGF mRNA level compared to untreated cells (in words) ([4]; normoxia): just a slide reduction
Relative Copy to Control ([4]; hypoxia, untreated hypoxia 4.50): 0.76
VEGF mRNA Copy/Copy million of Actine ([4]; hypoxia, untreated hypoxia 152782): 25873 Copy/Copy million of Actine
Relative Copy to Control ([4]; normoxia): 0.93
VEGF mRNA Copy/Copy million of Actine ([4]; normoxia, untreated normoxia 33918): 31454 Copy/Copy million of Actine
CD31 expression in treated tumours compared with the control (immunohistochemistry) [5]: statistically significant decrease of CD31 expression

SEQ ID NO: 19: cross-linked (stapled) peptide derived from SEQ ID NO: 1 (LDKA[formula (I), R19:CH3]VMRLTI[formula (I), R19:CH3]YLRVRK-NH2; staple 5-12; reading uncertain; also: staple: ‑(CH2)6‑CH:CH‑(CH2)3‑)
Relative VEGF (Hypoxia/Normoxia) [1]: 1.39

SEQ ID NO: 20: cross-linked (stapled) peptide derived from SEQ ID NO: 1 (LDKASV[formula (I), R19:CH3]RLTISY[formula (I), R19:CH3]RVRK-NH2; staple 7-14; reading uncertain; also: staple: ‑(CH2)6‑CH:CH‑(CH2)3‑)
Relative VEGF (Hypoxia/Normoxia) [1]: 0.99

SEQ ID NO: 21: cross-linked (stapled) peptide derived from SEQ ID NO: 1 (LDKASVM[formula (I), R19:CH3]LTISYL[formula (I), R19:CH3]VRK-NH2; staple 8-15; reading uncertain; also: staple: ‑(CH2)6‑CH:CH‑(CH2)3‑)
Relative VEGF (Hypoxia/Normoxia) [1]: 1.36

SEQ ID NO: 29: peptide of the second aspect with linker biradical, derived from SEQ ID NO: 22 (RSRRSKE[formula (I), R19:CH3]EVFYEL[formula (I), R19:CH3]HQ-NH2; staple 8-15; reading uncertain; also: staple: ‑(CH2)6‑CH:CH‑(CH2)3‑)
Relative VEGF (Hypoxia/Normoxia) [1]: 2.60

SEQ ID NO: 30: peptide of the second aspect with linker biradical, derived from SEQ ID NO: 22 (RSRRSKESE[formula (I)]FYELAH[formula (I)]-NH2; staple 10-17; reading uncertain; also: staple: ‑(CH2)6‑CH:CH‑(CH2)3‑)
Relative VEGF (Hypoxia/Normoxia) [1]: 2.70

SEQ ID NO: 31: peptide of the second aspect with linker biradical, derived from SEQ ID NO: 22 (RS[formula (I)]RSKESE[formula (I)]FYELAHQLP-NH2; staple 3-10; reading uncertain; also: staple: ‑(CH2)6‑CH:CH‑(CH2)3‑)
Relative VEGF (Hypoxia/Normoxia) [1]: 2.64
